Reference: patent publication US10213451B2, “Methods and compounds for modulating the secretion or expression of adhesion proteins or angiopoietins of cells” (PACIFIC ARROW LIMITED, priority 2004, dated 2019)
In brackets after ≈: the same amount, converted by molar mass. Where two headings read alike, the source gives them in different places.

Assays:
tumor growth = experiment: MTT anticancer activity of Y, X and hydrolysis products (FIG. 4C); format: cell-based
Description: (§1) MTT Assay. The procedure for MTT assay followed the method described by Carmichael et al. (1987) with modifications. The cells were seeded into a 96-well plate at concentration of 10,000/well for HTB-9, HeLa, H460, HCT116, T98G and OVCAR-3), 15,000/well for DU145, MCF-7, HepG2 and U2OS), and 40,000/well for K562 for 24 hours before drug-treatment. The cells were then exposed to the drugs for 48 hours (72 hours for HepG2 and U2OS, and 96 hours for MCF-7). After the drug-treatment, MTT (0.5 mg/mL) was added to cultures and incubated for an hour. The formazan (product of the reduction of tetrazolium by viable cells) formed and was dissolved with DMSO and the O.D. at 490 nm, and was measured by an ELISA reader. The MTT level of the cells before drug-treatment was also measured (T0). The % cell-growth (% G) is calculated as: % G=(TD−T0/TC−T0)×100(1), where TC or TD represents O.D. readings of control or drug-treated cells. When T0>TD, then the cytotoxicity (LC) expressed as % of the control is calculated as: % LC=(TD−T0/T0)×100(2).
(A) Alkaline Hydrolysis of Xanifolia-Y: 20 mg of Xanifolia-Y was dissolved in 0.5 mL of 1M NaOH. The solution was incubated in an 80° C. water bath for 4 hours. It was cooled to room temperature before being neutralized with 0.5 mL 1 N HCl (adjusted pH to about 3). The mixture was extracted with 2 mL 1-butanol 3 times. The butanol fractions were collected and lyophilized. The hydrolyzed saponin was further purified with HPLC in a C-18 column eluted with 25% acetonitrile.
(B) Acid Hydrolysis of Xanifolia-Y: 15 mg Xanifolia-Y was dissolved in 1 mL of Methanol. 1 mL of 2N HCl was then added. The mixture was refluxed in an 80° C. water bath for 5 hours. The solution was then neutralized by adding 2 mL of 1N NaOH (to a final pH 3-4). The aglycone was then extracted with ethylacetate 3 mL×3. The extracts were collected and pooled. Further isolation of aglycone (sugar-removed Xanifolia-Y) was achieved by HPLC with isocratic elution of 80% acetonitrile.

[1] = system: Fibronectin secretion from liver HepG2 cells; experiment: Fibronectin secretion (Western blot), HepG2 cells; format: cell-based, human; settings: 10 ug/ml; for inhibition at 10 µg/mL: Homo sapiens, HepG2, HepG2 cells; for % inhibition of Fibronectin secretion: HepG2 cells
[2] = system: Fibronectin secretion from skin SK-Mel-5 cells; experiment: Fibronectin secretion (Western blot), SK-MEL-5 cells; format: cell-based, human
[3] = system: Fibronectin secretion from ES2 cells; experiment: Fibronectin secretion (Western blot), ES2 cells; format: cell-based, human; settings: for inhibition at 10 µg/mL: Homo sapiens, ES-2, ES2 cells; for Fibronectin secreted into medium, % of DMSO control: 24 hours
Description: Inhibition of Fibronectin secretion is physiological and the determination of its quantity is based on the following criteria: • 1. Fibronectin is secreted from viable cells. Only cell with over 85% viable cells after drug-treatment are employed in these experiments. The viable cells were determined by MTT assay. • 2. For comparison, the immuno-band intensity from each samples are normalized with cell mass. The cell mass was determined by the MTT assay and is assigned as a MTT unit for each cell sample.
Cells: ES2 cells were grew in T-25 flask with RPMI 1640 medium over night before drug-treatment. Drug-treatment: cells cultures were replaced with fresh RPMI medium with Xanifolia-Y (10 ug/ml final concentration) or DMSO (as control) at 0 hour. At 1, 2, 4, 8 and 24 hour, aliquot of culture medium was taken out for Fibronectin determination. Fibronectin was determined by Western blot with monoclonal antibody (SIGMA) specific to human Fibronectin only.
Drug-treatment: cells cultures were replaced with fresh RPMI medium containing Xanifolia-Y (10 ug/ml final concentration) or DMSO (as control) at 0 hour. At 4 hours (A) or 8 hour (B), culture medium was replaced with fresh culture medium without drug. At 2, 4, 8 and 24 hour, aliquot of culture medium was taken out for Fibronectin determination. Fibronectin (FN) was determined by Western blot with monoclonal antibody (SIGMA) specific only to human Fibronectin.
(§2) Drug-treatment: cells cultures were replaced with fresh RPMI medium containing Xanifolia-Y (10 ug/ml final concentration) or DMSO (as control) at 0 hour. At 2, and 18 hour, aliquot of culture medium was taken out for Fibronectin determination (Western blot method). Cell viability at 18 hours was determined by MTT assay. Cultures were replaced with RPMI medium with MTT and incubated for an hour. The formation of formazan was dissolved in DMSO and OD at 570 nm was measured.
Cells and Drug-treatment: same as previous experiments. After 7 or 24 hours, aliquot of culture medium was taken out for Fibronectin determination (Western blot method). Cell viability at 24 hours was determined by MTT assay.
Cells: ES2 cells were grew in RPMI 1640 medium over night before drug-treatment. Drug-treatment: cells cultures were replaced with fresh RPMI medium containing DMSO (as control) [D]; Xanifolia-Y (10 ug/ml) [Y]; or Paclitaxel 10 or 50 ng/ml [T10, ro T50]. After 24 hours, aliquot of culture medium was taken out for Fibronectin determination (Western blot method). Cell viability at 24 hours was determined by MTT assay.
The amount of Fibronectin secreted by cells into medium was determined by Western blot assay. The amount of Fibronectin secreted per cells basis was determined by dividing the Western-band intensity with the MTT unit.
Western Blot: Spent culture medium (0.6 ml) was mixed with SDS sample buffer (0.2 ml), boiled for 3 minutes before loading to SDS gel. Samples (60 ul/lane) were applied to a 6% SDS gel and electrophoresis was conducted with 100 volts for 2 hours. Protein was transferred to a nitrocellulose paper electrophoretically (30 min at 100 volts). The Western blot was incubated with the first antibody (mouse anti-FN, specific to human FN, SIGMA F0916) and second antibody (Anti-mouse IgG AP conjugated, Promega S3721). The immunobands were developed with BCIP/NBT color development system (Promega S3771).

[4] = system: Fibronectin secretion from bladder carcinoma cells (HTB-9); experiment: Fibronectin secretion (Western blot), HTB-9 cells; format: cell-based, human; settings: 10 ug/ml; for inhibition at 10 µg/mL: Homo sapiens
[5] = system: Fibronectin secretion from brain glioblastoma T98G cells; experiment: Fibronectin secretion (Western blot), T98G cells; format: cell-based, human; settings: for inhibition at 10 µg/mL: Homo sapiens, 10 ug/ml
[6] = system: Fibronectin secretion from lung carcinoma cells (H460); experiment: Fibronectin secretion (Western blot), H460 cells; format: cell-based, human; settings: Homo sapiens, NCI-H460, H460 cells, 10 ug/ml
[7] = system: swelling of rats' feet induced by Carrageenin; experiment: Carrageenin-induced swollen feet model; format: in vivo, SD rats; settings: positive control 10.0 mg/kg fed once;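 note: percent increase in foot volume over pre-inflammation volume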
Description: SD rats, male, weighing 163±18 g were used in the experiment. The tested animals are allowed to acclimate for a week. The rats drink water freely. The rats were randomly divided into 5 groups: control, positive control and 3 test groups, and each group had 8 rats. The dose for 3 groups of rats are 10, 20 and 40 mg/kg. Indometacin for the positive control is 10 mg/kg and fed once after modeling. The dose of CMC-Na for the control group is the same as each test group and fed into the stomach once a day before modeling for 5 days. The tested drug was fed into the stomach 10 minutes before the animal modeling (1 mL/100 g). The volumes of right foot of each rat were measured 0.5, 1, 2 and 4 hours before and after modeling. The volumes of the right hind feet were measured at a different time, 10 minutes after inflammation induced by subcutaneous injection (with syringe needle 7) of 0.05 mL of the 1% of Carrageenin/normal saline mixture into the feet. The Rate of swelling of the feet was calculated, compared with the controls and subject to a student t-test. Rate of swelling (E) (%)=Ltn−Lt0/Lt0×100% • Ltn: volume of foot after the inflammation • Lt0: volume of foot before the inflammation

ES2(ovarian) cells = experiment: MTT assay ES2; format: cell-based, human; settings: for viable cells by MTT units vs DMSO control: 24 hours
Description: as §1
Methods: ES2 cells were exposed to (i) Xanifolia-Y with concentrations of 40, 20, 10, 5, 2.5, and 1.25 ug/ml; or (ii) Paclitaxel with concentrations of […]; or (iii) Combined Xanifolia-Y and Paclitaxel with concentrations of each drug in same order (for example, 40 ug/ml Y plus 10 ng/ml T; 20 ug/ml Y plus 5 ng/ml T, etc. please see FIG. 28). Cells growth under these conditions was determined by the MTT assay.
as §2

CC1O[C@@H](OC2[C@H](OC3[C@H](O[C@H]4C(O[C@@H]5OC(CO)[C@H](O)[C@@H](O)C5O)[C@H](O[C@H]5CC[C@@]6(C)C(CC[C@]7(C)C6CC[C@]68O[C@H](O)[C@]9(C6CC(C)(C)[C@@H](O)[C@@H]9O)[C@H](O)C[C@]87C)C5(C)C)OC(C(=O)O)[C@H]4O)OC(CO)[C@H](O)[C@H]3O)OC(C)[C@H](O)[C@@H]2O)C(O)[C@@H](O)[C@H]1O (some centres unmarked) [AKOH-Mb5]
anticancer activity after alkaline hydrolysis (tumor growth): lost anticancer activity

C/C=C(/C)C(=O)O[C@H]1[C@H](OC(=O)/C(C)=C\C)[C@@]2(CO)C(CC1(C)C)C1=CCC3[C@@]4(C)CC[C@H](O[C@@H]5OC(C(=O)O)[C@@H](O)C(O[C@@H]6OC[C@@H](O)C(O)C6O)C5O[C@@H]5OC(CO)[C@H](O)C(O)C5O)C(C)(C)C4CC[C@@]3(C)[C@]1(C)C[C@H]2O (some centres unmarked) [Ba1]
inhibition at 10 µg/mL [1]: 33% | inhibition at 10 µg/mL ([2]; Homo sapiens, 10 ug/ml): 10% | inhibition at 10 µg/mL ([3]; 10 ug/ml): 30% | inhibition at 10 µg/mL [4]: 25% | inhibition at 10 µg/mL [5]: 26% | inhibition at 10 µg/mL [6]: 19%

COc1ccc2c(c1)c(CC(=O)O)c(C)n2C(=O)c1ccc(Cl)cc1 [Indometacin, reference compound]
Swelling rate after administration (%) ([7]; 0.5 hour): 11.8% | Swelling rate after administration (%) ([7]; 1 hour): 14.7% | Swelling rate after administration (%) ([7]; 2 hours): 12.8% | Swelling rate after administration (%) ([7]; 4 hours): 10.7%

CC(=O)O[C@H]1C(=O)[C@@]2(C)[C@H]([C@H](OC(=O)c3ccccc3)[C@]3(O)C[C@H](OC(=O)[C@H](O)[C@@H](NC(=O)c4ccccc4)c4ccccc4)C(C)=C1C3(C)C)[C@]1(OC(C)=O)CO[C@@H]1C[C@@H]2O [Paclitaxel, reference compound]
Fibronectin secreted into medium, % of DMSO control ([3]; ES2 cells, 10 ng/ml): 105% | Fibronectin secreted into medium, % of DMSO control ([3]; ES2 cells, 50 ng/ml): 97% | inhibition of Fibronectin secretion ([3]; ES2 cells, 10 to 50 ng/ml): no inhibition | viable cells by MTT units vs DMSO control (ES2(ovarian) cells; ES2, 10 ng/ml): 94% | viable cells by MTT units vs DMSO control (ES2(ovarian) cells; ES2, 50 ng/ml): 91% | IC50 (ES2(ovarian) cells; ES2 cells, used singly): 1.25 ng/mL (≈ 1.46 nM) | IC50 (ES2(ovarian) cells; Homo sapiens, ES-2, ES2 cells, combined with Xanifolia-Y, read-out: IC50 value for Paclitaxel when both drugs were used): 0.625 ng/mL | IC50 (ES2(ovarian) cells; Homo sapiens, ES-2, ES2 cells, used singly, read-out: IC50): 1.5 ng/mL (≈ 1.76 nM)

C/C=C(/C)C(=O)O[C@H]1[C@H](OC(=O)/C(C)=C\C)[C@@]2(CO)C(CC1(C)C)C1=CCC3[C@@]4(C)CC[C@H](O[C@@H]5OC(C(=O)O)[C@@H](O)C(O)C5O[C@@H]5OC(CO)[C@H](O)C(O)C5O)C(C)(C)C4CC[C@@]3(C)[C@]1(C)[C@@H](O)[C@H]2O (some centres unmarked) [Xanifolia Y5]
% inhibition of Fibronectin secretion [1]: have inhibition effect | inhibition at 10 µg/mL ([3]; 10 ug/ml): 68%

C/C=C(/C)C(=O)O[C@H]1[C@H](O)[C@@]2(COC(=O)C(C)CC)C(CC1(C)C)C1=CCC3[C@@]4(C)CC[C@H](O[C@@H]5OC(C(=O)O)[C@@H](O)C(O[C@@H]6O[C@@H](CO)C(O)C6O)C5O[C@@H]5OC(CO)[C@H](O)C(O)C5O)C(C)(C)C4CC[C@@]3(C)[C@]1(C)[C@@H](O)[C@H]2O (stereo partly drawn) [Xanifolia Y7, 3-O-[β-D-galactopyranosyl-(1→2)]-α-L-arabinofuranosyl-(1→3)-β-D-glucuronopyranosyl-21-O-angeloyl-28-O-2-methylbutanoyl-3β, 15α, 16α, 21β, 22α, 28-hexahydroxyolean-12-ene]
inhibition at 10 µg/mL [1]: 10% | inhibition at 10 µg/mL ([3]; 10 ug/ml): 34% | inhibition at 10 µg/mL [4]: 60% | inhibition at 10 µg/mL ([5]; T98G): 24% | inhibition at 10 µg/mL [6]: 18%

beta-Escin [reference compound]
% inhibition of Fibronectin secretion ([1]; listed as ES): have inhibition effect | % inhibition of Fibronectin secretion ([1]; listed as β-ES): 44% | % inhibition of Fibronectin secretion ([2]; 20 ug/ml): 17% | % inhibition of Fibronectin secretion ([3]; ES2 cells, 10 ug/ml): 7% | Fibronectin secreted / FN band intensity, % of DMSO control ([3]; ES2 cells, 10 ug/ml): 93% | % inhibition of Fibronectin secretion ([3]; ES2 cells, 10 ug/ml, listed as β-ES): 19% | % inhibition of Fibronectin secretion ([3]; ES2 cells, 20 ug/ml): 48% | Fibronectin secreted / FN band intensity, % of DMSO control ([3]; ES2 cells, 20 ug/ml): 52% | % inhibition of Fibronectin secretion [4]: 47% | % inhibition of Fibronectin secretion ([5]; 20 ug/ml): 66% | growth of cells compared to the DMSO control (MTT) (ES2(ovarian) cells; ES2, 10 ug/ml (F13)): 90% | growth of cells compared to the DMSO control (MTT) (ES2(ovarian) cells; ES2, 20 ug/ml (F13)): 82%
